According to patent US4593019A, “N^6 -tricyclic adenosines” (Warner-Lambert Company, priority 1984, dated 1986):

Columns and labels:
[1] = Mouse Activity and Screen Test Procedure (MAST): inhibition of spontaneous locomotion; type: in vivo, mouse (male Swiss-Webster); details: one hour prior to testing, accumulated over one hour
Method: (§1) Nine unfasted Swiss-Webster male mice weighing 20-30 g are equally divided into three groups for each drug dose to be tested. That is, data for each dose level was generated by three separate groups of three mice each.
(§2) A minimum of three dose levels (10, 30, and 100 mg/kg) are tested for each drug. Treatments are administered intraperitoneally one hour prior to testing. All dosages are calculated as parent compound and given in volumes of 10 ml/kg. Compounds are dissolved or suspended in 0.2% Methocel. Control animals are injected with Methocel.
A two part testing procedure is started one hour postinjection. […] Briefly this test consists of placing mice on individual wire screens which are then rotated 180 degrees at the start of a 60 second observation period. The number of mice falling off the inverted screen is recorded.
The actophotometer consists of a cylindrical chamber whose center is occupied by another cylinder which contains the illumination for six photocells located on the perimeter of the chamber. Six light-beam interruptions equal one count. Locomotor activity is recorded by computer at ten minute intervals for 60 minutes.
The data obtained from the screen test are expressed as percent of mice falling off the screen. Data derived from locomotor activity of drug treated mice are compared to the activity of vehicle treated animals and are expressed as percent inhibition of spontaneous locomotion. All percentages reported for inhibition of locomotion (LI) are based upon data accumulated for one hour. […] An overall dose rating is obtained by the following criteria:
LAD refers to the lowest dose at which an A rating is achieved. […] The compounds are identified in the examples.

mice = test: Mouse Activity and Screen Test Procedure (MAST): screen test failure; type: in vivo, mouse (male Swiss-Webster); details: one hour postinjection
Source text: The compounds of the invention are new chemical substances which are useful as pharmaceutical agents for the treatment of psychoses. The antipsychotic activity of representative compounds of the invention was established by the Mouse Activity and Screen Test Procedure (MAST) described below.
as §1, §2
A two part testing procedure is started one hour postinjection. First, the screen test (ST) is performed (see Pharmac. Biochem. Behav. 6, 351-353, 1977). Briefly this test consists of placing mice on individual wire screens which are then rotated 180 degrees at the start of a 60 second observation period. The number of mice falling off the inverted screen is recorded.
The data obtained from the screen test are expressed as percent of mice falling off the screen. Data derived from locomotor activity of drug treated mice are compared to the activity of vehicle treated animals and are expressed as percent inhibition of spontaneous locomotion. All percentages reported for inhibition of locomotion (LI) are based upon data accumulated for one hour. Both phases of testing are graded: A=60-100%; C=31-59%; and N=0-30%. An overall dose rating is obtained by the following criteria: […]

A2 receptor = target: T1, A2 receptor (Rattus norvegicus, UniProt P30543); test: Adenosine Receptor Binding - A2 Receptor Affinity (RBA2), [3H]NECA displacement; details: 4 nM [3H]NECA, 50 nM N6-cyclopentyladenosine, rat striatal membranes, 25° C., 60 min; read-out: RBA-2 IC50 (adenosine A2 receptor affinity)
T1 construct: 5 mg original tissue weight of rat weight of rat striatal membranes; tissue Pel-Freez (Rogers, Ark.); host or cells: rat striatum (membranes)
Method: Adenosine Receptor Binding--A2 Receptor Affinity (RBA2)
Brains from 200-500 g mixed sex Sprague-Dawley rats were purchased from Pel-Freez (Rogers, Ark.). […] Brains were thawed and then kept on ice while the striata were dissected out. […] The suspension was centrifuged at 50,000 xg for ten minutes, the supernatant discarded, the pellet resuspended in 10 vol ice-cold Tris as above, recentrifuged, resuspended at 1 g/5 ml, and stored in plastic vials at -70° C. […] When needed, tissue was thawed at room temperature, disrupted in a Polytron, and kept on ice until used. […]
Nonspecific binding was defined as binding in the presence of 100 μM N^6 -cyclopentyladenosine, and specific binding was defined as total binding minus nonspecific binding. The IC50 was calculated by weighted nonlinear least squares curve-fitting to the mass-action equation. […]
Weighting factors were calculated under the assumption that the standard deviation was proportional to the predicted value of Y. Nonspecific binding was treated as a very large (infinite) concentration of drug in the computer analysis.

A1 receptor = target: T2, A1 receptor (Rattus norvegicus, UniProt P25099); test: Adenosine Receptor Binding - A1 Receptor Affinity (RBA1), [3H]-CHA displacement; details: 1.0 nM [3H]-CHA, rat brain membranes, pH 7.7, 25° C., 1 h; read-out: RBA-1 IC50 (adenosine A1 receptor affinity)
T2 construct: Whole brain minus cerebellum and brainstem from male Long Evans rats; from tissue; host or cells: rat whole brain minus cerebellum and brainstem (membranes)
T2 sequence (P25099 1-326): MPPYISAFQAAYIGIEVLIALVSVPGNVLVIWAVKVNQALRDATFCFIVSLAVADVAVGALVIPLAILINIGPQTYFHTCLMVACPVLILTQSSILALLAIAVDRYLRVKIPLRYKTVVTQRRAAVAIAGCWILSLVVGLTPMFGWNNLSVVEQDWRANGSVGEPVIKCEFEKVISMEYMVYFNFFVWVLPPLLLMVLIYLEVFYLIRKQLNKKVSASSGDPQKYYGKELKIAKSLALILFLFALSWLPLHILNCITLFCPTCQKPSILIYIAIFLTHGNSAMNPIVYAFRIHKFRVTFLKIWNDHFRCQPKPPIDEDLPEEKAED
Method: The supernatant was discarded, and the pellet was resuspended and centrifuged as before. […] Incubation volume was 2 ml. […] The radio-labeled ligand retained on the filter was measured by liquid scintillation spectrophotometry after shaking the filters for one hour or longer on a mechanical shaker in 10 ml of Beckman Ready-Solv HP scintillation cocktail. […] The maximal number of binding sites (Bmax) was calculated from the Scatchard plot.

[2] = Antihypertensive evaluation (AHP3): direct monitoring of aortic blood pressure and heart rate in conscious rats; type: in vivo; details: 10 mg/kg, conscious rat
Method: This test procedure is described in the following paragraphs.
The continuous monitoring of pulsatile blood pressure (BP) from unrestrained conscious rats surgically equipped with polyethylene cannulas was accomplished by means of a computer assisted data capture scheme (CADCS). The basic elements of the methodology are the cannulation procedure and the CADCS.
Cannulation Procedure: Rats were anesthetized with Telazol (1:1 tiletamine HCl and zolazepam HCl); 20-40 mg/kg IM and the descending aorta exposed via a midline incision. Cannulas fabricated from polyethylene tubing were inserted into the aorta via an undersized puncture hole below the renal arteries. The puncture hole was made by a 23 G disposable needle with a section of the aorta clamped off above and below the puncture site. The cannulas, consisting of a PE100 (0.86 mm ID) body and a PE50 (0.58 mm ID) tip, were attached to a trocar, inserted through the psoas muscle, and passed subcutaneously along the midline of the back and externalized between the ears. The cannulas were anchored to the psoas muscle and between the scalulae (3-0 green braided suture). The midline incision was closed in two steps (muscle first, skin second) using continuous over-and over sutures (4-0 chronic). Each rat was then given penicillin 30,000 units subcutaneously (Penicillin G Procaine Sterile Suspension).
The rats were fitted with a harness-spring-swivel assembly designed to protect the cannula and to provide the rat relative freedom of movement. The harnesses were fabricated from nylon hook and loop tape cemented to a metal plate to which spring wires (18-8 stainless steel), were attached to brass swivels. […] While on test, each rat received a continuous slow infusion of heparinized saline solution (approximately […] or 40 units of heparin per 24 hour period) to prevent clot formation. Additional "flushes" of the cannula with heparinized saline were carried out when the aortic pulse pressure (systolic minus diastolic) was less than 25 mm Hg.
CADCS: The pulsatile blood pressure and heart rate of each of 32 rats was monitored every minute by means of two in-laboratory microcomputers communicating directly with a data concentrator computer. The data were first stored on the data concentrator disk and then transferred to a magnetic tape for analysis and report generation by the main research computer. The overall scheme involved modulating the primary signal from the pressure transducer, generating the primary data set of the one-minute values for systolic, diastolic, and mean blood pressures and heart rate by the in-lab microcomputer and the storage, analysis, and report generation by the main reserach computer.
The transducers were connected to analog signal conditioning modules. The modules provided a regulated excitation voltage for the transducers, amplification as required to interface the microprocessors and an active low pass filter to compensate for the pressure wave form distortion produced by the flexible, fluid filled, narrow cannula.
The microcomputers (one for each of two groups of 16 rats) were connected to the input components through the module interface units, an analog-to-digital converter for the pressure wave form signal and the digital inputs for the dose and event marker switches. The microcomputer controlled the sequential acquisition of data from the modular interface units through an internal synchronous time-of-day clock/time base generator. Utilizing the time base generator as a reference, the blood pressure values and the marker switch status for each of the 32 stations were sampled every ten msec. The microcomputer processed each blood pressure sample as it was received to produce "running average" values for heart rate, and mean, systolic and diastolic blood pressures.

T1 sequence (P30543 whole entry): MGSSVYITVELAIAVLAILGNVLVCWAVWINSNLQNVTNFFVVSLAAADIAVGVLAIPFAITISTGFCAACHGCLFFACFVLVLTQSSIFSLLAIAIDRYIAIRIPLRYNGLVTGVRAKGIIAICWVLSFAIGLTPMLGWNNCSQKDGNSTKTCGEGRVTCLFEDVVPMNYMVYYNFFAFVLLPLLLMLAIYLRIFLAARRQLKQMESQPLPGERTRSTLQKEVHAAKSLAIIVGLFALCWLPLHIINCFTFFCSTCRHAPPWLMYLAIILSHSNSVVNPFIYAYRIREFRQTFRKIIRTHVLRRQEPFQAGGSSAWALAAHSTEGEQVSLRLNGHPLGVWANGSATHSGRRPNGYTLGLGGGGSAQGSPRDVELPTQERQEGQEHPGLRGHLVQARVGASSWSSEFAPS

Compound	Inhibition of Mouse Locomotion Activity ([1]; 10 mg/kg i.p.)	Inhibition of Mouse Locomotion Activity ([1]; 30 mg/kg i.p.)	Inhibition of Mouse Locomotion Activity ([1]; 100 mg/kg i.p.)	Screen Test Failure (percent of mice falling off the screen) (mice; 10 mg/kg i.p.)	Screen Test Failure (percent of mice falling off the screen) (mice; 30 mg/kg i.p.)	Screen Test Failure (percent of mice falling off the screen) (mice; 100 mg/kg i.p.)	IC50 (A2 receptor)	IC50 (A1 receptor)	HR ↑ (increase in heart rate) ([2]; 1 hour)	MAP ↓ (decrease in mean arterial blood pressure) ([2]; 1 hour)	HR ↑ (increase in heart rate) ([2]; 3 hours)	MAP ↓ (decrease in mean arterial blood pressure) ([2]; 3 hours)	HR ↑ (increase in heart rate) ([2]; 5 hours)	MAP ↓ (decrease in mean arterial blood pressure) ([2]; 5 hours)	HR ↑ (increase in heart rate) ([2]; 7 hours)	MAP ↓ (decrease in mean arterial blood pressure) ([2]; 7 hours)	HR ↑ (increase in heart rate) ([2]; 9 hours)	MAP ↓ (decrease in mean arterial blood pressure) ([2]; 9 hours)	Inhibition of Mouse Locomotion Activity ([1]; 1 mg/kg i.p.)	Inhibition of Mouse Locomotion Activity ([1]; 3 mg/kg i.p.)	also measured
OC[C@H]1O[C@@H](n2cnc3c(NC4c5ccccc5-c5ccccc54)ncnc32)[C@H](O)[C@@H]1O [Example 1]	41%	60%	68%	0%	0%	0%	51000 nM	8600 nM													
OC[C@H]1O[C@@H](n2cnc3c(NCC4c5ccccc5-c5ccccc54)ncnc32)[C@H](O)[C@@H]1O [Example 2]	97%	97%	91%	44%	55%	55%			24%	32%	27%	32%	20%	34%	13%	28%	13%	30%	56%	94%	Screen Test Failure (percent of mice falling off the screen) (mice; 1 mg/kg i.p.): 11%; Screen Test Failure (percent of mice falling off the screen) (mice; 3 mg/kg i.p.): 33%
OC[C@H]1O[C@@H](n2cnc3c(NCCC4c5ccccc5-c5ccccc54)ncnc32)[C@H](O)[C@@H]1O [Example 3, N^6 -Fluorenylethyl adenosine]								435 nM													
OC[C@H]1O[C@@H](n2cnc3c(NCC4c5ccccc5Oc5ccccc54)ncnc32)[C@H](O)[C@@H]1O [Example 4, N^6-[Xanthene-9-methylamino]adenosine]	72%	91%	91%	0%	11%	44%	65 nM	85 nM	16%	11%	19%	4%	25%	8%	15%	12%	18%	8%	-5%	17%	Screen Test Failure (percent of mice falling off the screen) (mice; 1 mg/kg i.p.): 0%; Screen Test Failure (percent of mice falling off the screen) (mice; 3 mg/kg i.p.): 0%
